Test: Phase 1 Part A single ascending dose (SAD) and food effect/pH cohort, blood pressure and safety, healthy participants
Format: in vivo, human
Conditions: for Time of maximum mean DBP reduction / Time of maximum mean SBP reduction: within 12 h post dose
Method: The study was performed in 3 parts in 112 healthy male and female participants, including 24 Japanese participants. Female participants were to be not of childbearing potential. The present study was designed to evaluate the safety and tolerability, PK, and exploratory PD of an oral suspension of Compound A. Parts A and B (Cohort B1 only) enrolled healthy participants and was conducted at a site in The Netherlands and Part B (Cohort B2 to B5) enrolled healthy non-Japanese participants and was conducted at a site in the United Kingdom (UK). Part C enrolled healthy Japanese participants and was conducted at the same site in the UK.
Part A was an SAD study in a planned number of 6 sequential dose escalation cohorts (3, 10, 30, 100, 150, or 250 mg) of 8 healthy participants (6 active+2 placebo) each, under fasted conditions. Eligible participants in Part A (excluding those in Cohort A7 [food effect (FE)/pH cohort]) received a single administration of study drug (Compound A or placebo) under fasted conditions. In Cohort A1 to Cohort A6, sentinel dosing was employed (1 active+1 placebo, followed after 48 hours by the remaining participants of the cohort [5 active+1 placebo]). […] In addition to the 6 ascending dose cohorts, a cohort of 6 healthy participants (Cohort A7; 6 active, 100 mg Compound A) was included to assess the effect of food and pH on the bioavailability of Compound A in a 3-period, open-label, fixed-sequence, crossover design (FE/pH cohort).
Physical examinations, vital sign measurements (including orthostasis testing in Cohort A6, Cohort B3 to B5, and C1 to C3 at selected time points), 12-lead electrocardiogram (ECG), and clinical laboratory evaluations were performed at selected times throughout the study. In addition, Holter monitoring was performed for the first 24 hours post dose on Day 1 in Part A (not in FE/pH cohort), and also for the first 24 hours post dose on Day 1 and Day 14 in Parts B and C. Participants were closely monitored for adverse events (AEs). Blood samples were collected for up to 14 days (follow-up visit) after (last) study drug administration for PK analysis. In addition, blood and urine were collected for exploratory biomarker assessments and for biobanking of samples for potential analyses. Urine was collected for potential PK analysis for up to 96 hours after a single dose of Compound A or placebo was administered in the SAD part, and for up to 24 hours after the first (morning) dose of study drug on Day 1 and for up to 24 hours after the last (morning) dose of study drug on Day 14 in the MAD parts.

[1] = 100 mg fasted + famotidine (A7)

CCCN(C)C(=O)OCc1c(-c2ccc(O[C@H]3CCC[C@H](C(=O)O)C3)c(C)n2)nnn1C [Compound A, (1S,3S)-3-((2-methyl-6-(1-methyl-5-(((methyl(propyl)carbamoyl)-oxy)methyl)-1H-1,2,3-triazol-4-yl)pyridin-3-yl)oxy)cyclohexane-1-carboxylic acid]
Time of maximum mean DBP reduction (100 mg fasted (A7)): 5 h | Time of maximum mean SBP reduction (100 mg fasted (A7)): 8 h | Time of maximum mean DBP reduction [1]: 6 h | Time of maximum mean SBP reduction [1]: 6 h | Time of maximum mean DBP reduction (100 mg fed (A7)): 5 h | Time of maximum mean SBP reduction (100 mg fed (A7)): 6 h | Time of maximum mean DBP reduction (SAD 10 mg (A2)): 6 h | Time of maximum mean SBP reduction (SAD 10 mg (A2)): 8 h | Time of maximum mean DBP reduction (SAD 30 mg (A3)): 5 h | Time of maximum mean SBP reduction (SAD 30 mg (A3)): 4 h | Time of maximum mean DBP reduction (SAD 100 mg (A4)): 5 h | Time of maximum mean SBP reduction (SAD 100 mg (A4)): 2 h | Time of maximum mean DBP reduction (SAD 150 mg (A5)): 6 h | Time of maximum mean SBP reduction (SAD 150 mg (A5)): 6 h | Effect on SBP and DBP (SAD cohorts): decreased SBP and DBP dose dependently, reversibly, and mostly asymptomatically with minimal effect on heart rate | Safety and tolerability (single and multiple dose oral administration, healthy participants): generally safe and well tolerated | Time after dosing of maximum BP reduction (single and multiple dose, healthy participants): 4 to 8 h
